# Entries after “also recorded” stand apart in the source; their conditions may differ.
# Assays:
# [1] = tested on: endothelium intact aortic rings; experiment: Ca2+-induced contraction of rat aortic rings in Ca2+-free high-K+ solution; assay type: cell-based
# Procedure: To determine the effect of flavonoids on responses to the influx of extracellular Ca^2+, contractile responses to exogenous application of Ca^2+ were examined in the presence of flavonoids in Ca^2+-free high-K^+ solution (60 mM, KPSS). Aortic rings were initially equilibrated at a resting tension of 1 g in normal Ca^2+-free PSS for 45 minutes. The bath medium was then replaced with Ca^2+-free KPSS for 45 minutes to determine a reference contraction to Ca^2+ (3×10^−3 M). Following a 30 minute re-equilibration period with Ca^2+-free PSS, the cumulative contractile responses to Ca^2+ (10^−5−3×10^−3 M) were determined in KPSS in the presence of a range of concentrations (10^−8-10^−4 M) of vehicle, 3′,4′-dihydroxyflavonol, 3-hydroxyflavone-3-hemiadipate, 3′,4′-dihydroxy-3-hemiadipate, 3-hydroxyflavone-3-phosphate. A 20 minute incubation period was allowed for the flavonoids before examining the responses to Ca^2+.
# To determine the effect of flavonoids on responses to the influx of extracellular Ca^2+, contractile responses to exogenous application of Ca^2+ were examined in the presence of flavonoids in Ca^2+-free high-K^+ solution (60 mM, K+-PSS). Aortic rings were initially equilibrated at a resting tension of 1 g in Ca^2+-free PSS for 45 minutes. The bath medium was then replaced with Ca^2+-free K+-PSS for 45 minutes to determine a reference contraction to added Ca^2+ (3 mM). Following a 30 minute re-equilibration period with Ca^2+-free PSS, the cumulative contractile responses to Ca^2+ (10^−5−3×10^−3 M) were determined in K^+ PSS in the presence of vehicle (0.1% DMSO), or a range of concentrations (10^−7-10^−4 M) of 3′-hydroxyflavonol, F3HA, DiOHF3HA or F3P. A 20 minute incubation period was allowed for the flavonoids before examining the responses to Ca^2+. Experiments were conducted in the presence and absence of BuCHE (1000 U/L) to cleave the adipate in F3HA and DiOHF3HA. In experiments using F3P, phosphatase (1000 U/L) was used in some experiments to cleave the phosphate.
# anaesthetised sheep = experiment: Myocardial ischaemia and reperfusion injury in anaesthetised sheep; assay type: in vivo; details: for effect on infarct size / cardioprotection: i.v. in aqueous solution after 30 min of ischaemia; for infarct size normalized to the area at risk (IS/AR): lower dose: DiOHF3HA 2.7 mg/kg, DiOHF 2 mg/kg i.v.
# Procedure: The ability of the synthetic flavonol, 3′,4′ dihydroxy flavonol adipate (DiOHF3HA) to prevent myocardial ischaemia and reperfusion injury in anaesthetised Sheep was assessed.
# Five groups of anaesthetised adult merino sheep (35-45 kg wethers) were examined:
# Anaesthesia was induced by intravenous thiopentone sodium (15 mg/kg) and following tracheal intubation was maintained by isoflurane (1.5-2%). A catheter was inserted in the right facial artery for arterial blood sampling and monitoring arterial pressure. Intravenous infusions were made via a catheter inserted into the jugular vein. The heart was exposed through a left thoracotomy performed at the fourth intercostal space. A 4F catheter-tipped manometer was inserted through the left atrium into the left ventricle to measure left ventricular pressure (LVP). An additional silastic cannula was inserted into the left atrial appendage for the injection of lignocaine and for infusion of Evans Blue. The left anterior descending coronary artery (LAD) was dissected from the epicardium immediately distal to its second diagonal branch, and a transit-time 2 mm flow probe was placed around it to monitor the LAD blood flow. A silk suture was passed under the LAD proximal to the probe and both ends of the silk were threaded through a plastic tube to form a vascular snare.
# The animals were allowed to stabilise for 10-15 minutes after the completion of the surgical procedure. Sheep were then randomly divided into different treatment groups. All sheep had 30 minute baseline recording followed by 1 hour ischaemia and 3 hours reperfusion.
# During the course of the experiment, haemodynamic measurements were recorded at 5 minute intervals and blood samples were taken at designated time-points. After 30 minutes of ischaemia, flavonol treatment was administered. DiOHF was dissolved in 2 ml DMSO plus 14 ml polyethylene glycol:water (1:1). DiOHF3HA was dissolved in 20 ml 0.1M Na2CO3. The drugs were given at 1 ml/min i.v. The two doses of DiOHF3HA (2.7 mg/kg and 6.6 mg/kg) were chosen to achieve equivalent molar doses to the parent DiOHF compound (at 2 mg/kg and 5 mg/kg, respectively). […] Lignocaine was used, as required, to ameliorate arrhythmias.
# The area of myocardium at risk and infarct size were delineated by Evan's blue and triphenyltetrazolium chloride (TTC) staining. After 3 hours of reperfusion, the LAD was re-occluded at the original occlusion site. Immediately after intravenous injection of pentobarbitone (100 mg kg^−1) to arrest the heart, Evan's blue dye (1.5%, 40 ml) was injected into the left atrium to define the myocardium at risk. The heart was rapidly removed and the left ventricle was sliced into transverse sections about 1 cm thick. The unstained risk area was traced onto the same transparencies. The sections were then incubated in 0.1 M sodium phosphate buffer containing 1% TTC for 20 min (37° C., pH 7.4). The infarcted area was traced onto transparencies. The area of myocardium at risk, and infarct size, were measured by computerised planimetry. The former was expressed as a percentage of total left ventricular volume (AR/LV %) and infarct size was expressed as a percentage of the area of myocardium at risk (IS/AR %).
# Arterial blood samples (5 ml) were collected into chilled heparinised tubes at baseline, during ischaemia and at three time points during the reperfusion period (1 hour, 2 hour and 3 hour). Following centrifugation at 4° C., plasma samples were stored at −20° C. until measurement to determine levels of lactate dehydrogenase and creatinine kinase.
SMILES,Maximum Contraction (percent 3 mM Ca^2+) ([1]; 10^−4 M + BuCHE),"Maximum Contraction (percent 3 mM Ca^2+) ([1]; 10^−4 M, without BuCHE)","effect on Ca^2+-induced contraction ([1]; alone, highest concentration 10^−4 M)","effect on Ca^2+-induced contraction ([1]; alone, over the concentration range tested)",effect on Ca^2+-induced contraction ([1]; in the presence of BuCHE or phosphatase (1000 U/L)),regression of LAD flow after reperfusion hyperperfusion (anaesthetised sheep; 6.6 mg/kg vs control),"haemodynamic indices (arterial pressure, HR, LV-EDP, dP/dtmax) during infusion (anaesthetised sheep; 20-min i.v. infusion, 6.6 mg/kg)",increase in plasma creatine kinase (anaesthetised sheep; after 1 hour ischaemia and 3 hours reperfusion) [U/L],"increase in plasma lactate dehydrogenase (anaesthetised sheep; after 1 hour ischaemia and 3 hours reperfusion, n=4) [U/L]",effect on infarct size / cardioprotection (anaesthetised sheep),effect on infarct size / cardioprotection (anaesthetised sheep; listed as Adipate),infarct size normalized to the area at risk (IS/AR) (anaesthetised sheep) [%]
"O=C(O)CCCCC(=O)Oc1c(-c2ccc(O)c(O)c2)oc2ccccc2c1=O [DiOHF3HA, 3′,4′-dihydroxyflavone-3-hemiadipate]",35 ± 6,101 ± 1,slight Ca2+ inhibitory action,little effect on calcium-induced contraction,markedly enhanced the inhibitory effect; also recorded: equivalent inhibitory effect to DiOHF; also recorded: inhibit calcium-induced contraction,more rapid,did not alter haemodynamic indices; also recorded: unchanged,1579±936,67±32,dose-related reduction in infarct size; also recorded: equivalent degree of cardioprotection to the parent compound,significant difference in infarct size,64
"O=c1c(O)c(-c2ccc(O)c(O)c2)oc2ccccc12 [DiOHF, 3′,4′-Dihydroxyflavonol, reference compound]",–,18 ± 2,–,–,–,–,–,–,–,–,–,73

# Source: US8017649B2, “Flavonoid compounds and uses thereof” (Howard Florey Institute of Experimental Physiology and …, priority 2005, dated 2011)
